Values of other authors in patent publication US20200069728A1, “HYPOCHLOROUS ACID BASED EYE DROP AND OPHTHALMIC COMPOSITION” (priority 2018, published 2020).

Conditions: non-stabilized hypochlorous acid, background statement

For `OCl` [hypochlorous acid], the “potency lost per day” value is listed as 1-2%.
